Reference: US20050020582A1 (priority 2001, published 2005)
Where two headings read alike, the source gives them in different places.

What was measured:
[1] = tested on: neuroblastoma cells (ScN2a); details: mouse
[2] = human, in vivo, cited from earlier work

## CN(C)CCCN1c2ccccc2Sc2ccc(Cl)cc21 [chlorpromazine]
[1]
  decrease in cell population (cytotoxic effects): 50%

## CCN(CC)CCCC(C)Nc1c2ccc(Cl)cc2nc2ccc(OC)cc12 (stereo not shown) [quinacrine]
[1]
  concentrations without cytotoxic effects on neuroblastoma cells: < 5 µM

## CSc1ccc2c(c1)N(CCC1CCCCN1C)c1ccccc1S2 (stereo not shown) [thioridazine]
[2]; po
  brain concentration: more than 80 μM
[2]
  brain concentration: 20 µM
